According to patent US20190367449A1, “PHENYLCREATINE, ITS USE AND METHOD FOR ITS PRODUCTION” (priority 2017, published 2019):

Experiments:
[1] = system: white mongrel mice; test: Endurance of mice in the treadmill test (running to complete exhaustion); format: in vivo; conditions: for Running time of mice (M ± m): treadmill 29-31 m/min, 1 hour after administration
Protocol: In order to find out whether phenylcreatine is a functional analogue of creatine, and also how much its effect is related to the strength of creatine, the functional state of the mice was assessed, namely, the body weight was measured, activity and endurance in the test on white mongrel mice were assessed-males weighing 18-22 g. Two experimental groups of mice and one control group (10 mice in each group) were selected. Initially, the animals were of equal mass. The animals were kept in accordance with the rules adopted by the European Convention for the Protection of Vertebrates used for experimental and other purposes (European Convention for the Protection of Vertebrates used for Experiments or for Other Scientific Purposes (EST No. 123), Strasbourg, 18 March 1986, M., 1990, 12 pp.). Animals were kept in standard vivarium conditions. The animals were killed by decapitation in accordance with the “Rules for carrying out work using experimental animals”, approved by order of the Ministry of Health of the USSR No. 742 of 13 Nov. 1984 (Bolshakov […] Didactic and ethical aspects of research on biomodels and on laboratory animals//Qualitative clinical practice. 2002. No. 1. P.58-61). Within 20 days, the animals received an aqueous solution of creatine in a dosage of 0.3 mg per gram of weight. […] Upon administration, the drug was dissolved in 0.3 ml of water and injected into mice through a probe into the stomach daily in the morning, on an empty stomach. The animals of the control group received a similar volume of water. Phenylcreatine was also administered for 20 days in an amount of 50 mg per kg of body weight. Endurance of mice under physical exertion was assessed according to a standard procedure (Emirova L R Potention by […] of the action of medicinal substances that increase the endurance of athletes: dis . . . medical doctor: 14.00.25. M., 2004. 125 pp.) for the duration of running in the treadmill test. The animals of each group were subjected to daily training loads in a high load power mode, which was modelled by running on a treadmill at a speed of 29-31 m/min. The duration of daily mice training was 5 minutes. Endurance of mice was tested on the 1st, 5th, 10th, 15th, 20th and 25th days of training against the background of administration of drugs (or distilled water in the control). Endurance testing was conducted under the same conditions as training. Endurance was tested 1 hour after drug administration (Petrenko E R Comparative pharmacological study of adaptogenic properties of ginseng preparations: dis . . . candidate of biological sciences: 14.00.25., St. Petersburg, 1998. 126 pp.) until fatigue, the criterion of which was the lack of reaction of mice to stimulation of the legs and tail by electric current (Stratienko E N Influence of phenylethyl substituted derivatives of 3-oxypridine on the physical working capacity of mice under conditions of hypobaric hypoxia: dis . . . . Medical Candidate of Sciences Bryansk, 1996. DSP. 201 pp.). Running time was recorded in seconds. The study was carried out at rest, an hour after the administration of creatine or phenylcreatine, and immediately after the end of the run in the treadmill. Statistical processing of data was carried out in the program Statistica, for all data groups, using the Student's criterion. The following results were obtained concerning the effect of the intake of creatine and phenylcreatine on the endurance of mice. Dosages of 10 mg of phenylcreatine per animal and 300 mg of creatine per animal were used.

[2] = Stability of phenylcreatine compared to creatine in blood serum (RP-HPLC peak areas); format: in vitro ADME, human
Protocol: The study of the stability of phenylcreatine and creatine in aqueous solution and in human blood was carried out as follows. For the preparation of solutions of test substances on an analytical balance the exactly weighed phenylcreatine and creatine were taken. The calculated amount of double-distilled water was added to them to obtain a concentration of 1 mg/ml. A part of the solution was diluted 10 times, and the sample was immediately analyzed. Further, that solution was kept at room temperature and after 3 hours the analysis was repeated. Further according to the method described in Dunnett, Harris & Orme (1991) Reverse phase ion-pairing high performance liquid chromatography of phosphocreatine, creatine and creatinine in equine muscle. Scand. J. Clin. Lab. Invest. 51, 137-141, page 139, aliquot (c), creatinine, creatine and phosphocreatine were removed from the samples used for obtaining of the blood serum for mixing, to obtain more accurate results. 1 ml of water or prepared according to the method above blood serum was added to 200 μl of a solution in water of initial substance with a concentration of 2-3 mg/ml, shaken and a sample of 200 μl volume was immediately taken and initial concentration was analyzed. Then the solution was placed in a vibration thermostat at 37° C. and an aliquot of 200 μl was taken in 0.5, 1 and 3 hours of incubation. 20 μl of a 10% solution of trichloroacetic acid was added to the selected sample and kept for 15 min at a temperature of minus 24° C., centrifuged at 6000 g for 5 min to precipitate the plasma proteins, supernatant was collected and its analysis was conducted. The study of the stability of phenylcreatine compared to creatine in an aqueous solution and blood was carried out using reversed-phase HPLC using a chromatographic system Agilent 1220 Infinity LC System (USA). To assess the stability of the analytes, the peak areas of the compounds were compared at the beginning of the experiment and at selected intervals (Table 2).

[3] = 15th day of the study, control 1.1 times
[4] = 20th day of the study, control 1.4 times
[5] = 25th day of research, control 1.7 times
[6] = 1 d, 10 mg phenylcreatine or 300 mg creatine per animal
[7] = 0 h, initial, peak area relative to the beginning of the experiment

Row | Stability in a blood serum [2, 7] [%] | Stability in a blood serum ([2]; 0.5 h incubation at 37° C.) [%] | Stability in a blood serum ([2]; 1 h incubation at 37° C.) [%] | Stability in a blood serum ([2]; 3 h incubation at 37° C.) [%] | Concentration in the blood (in words) ([2]; for 3 hours) | SMILES | Increase of running time to total fatigue [1, 3] [times] | Increase of running time to total fatigue [1, 4] [times] | Increase of running time to total fatigue [1, 5] [times] | Running time of mice (M ± m) [1, 6] [s] | Running time of mice (M ± m) ([1]; 5 d) [s] | Running time of mice (M ± m) ([1]; 10 d) [s] | Running time of mice (M ± m) ([1]; 15 d) [s] | Running time of mice (M ± m) ([1]; 20 d) [s] | Running time of mice (M ± m) ([1]; 25 d) [s] | Speed of increase of the effect relative to the group receiving creatine ([1]; mice treadmill) [times]
1 | 100 | 98 | 67 | 52 | – | CN(CC(=O)O)C(=N)N [creatine, 2-(methylguanine)-ethane acid] | 2.8 | 4.5 | 5.6 | 626.00 ± 32.25 | 772.60 ± 33.07 | 775.80 ± 37.01 | 1811.30 ± 85.82 | 2794.70 ± 103.22 | 3697.5 ± 1373 | –
2 | 100 | 100 | 99 | 96 | remained practically unchanged | N=C(N)N(CC(=O)O)Cc1ccccc1 [phenylcreatine, N-benzyl-N-carbamimidoylglycine] | 6.4 | 6.9 | 6.7 | 588.23 ± 25 | 747.23 ± 17.06 | 1874.12 ± 114.43 | 3756.77 ± 97.02 | 4076.45 ± 276.57 | 3981.4 ± 202.8 | 2
